# Experimental data published in patent US20230391768A2, “IMIDAZOPYRIDINE DERIVATIVES AND AZA-IMIDAZOPYRIDINE DERIVATIVES AS JANUS KINASE 2 INHIBITORS AND USES THEREOF” (Dana-Farber Cancer Institute, Inc., priority 2018, published 2023).
# Assays:
# Experiment in all cases: KINOMEscan
# Type in all cases: binding
# Conditions in all cases: read-out: percent of control
# ACVR1B = ACVR1B (Homo sapiens (Human), UniProt P36896)
# Method: (§1) In vitro profiling of Compound I-2 (1 μM) was performed using the DiscoveRx KINOMEscan® platform.
# ACVR2B = ACVR2B (Homo sapiens (Human), UniProt Q13705)
# Method: as §1
# ADCK3 = ADCK3 (Homo sapiens (Human), UniProt Q8NI60)
# Method: as §1
# ALK(C1156Y) = ALK(C1156Y) (Homo sapiens (Human), UniProt Q9UM73, C1156Y)
# Method: as §1
# AMPK-alpha2 = AMPK-alpha2 (Homo sapiens (Human), UniProt P54646)
# Method: as §1
# ASK1 = ASK1 (Homo sapiens (Human), UniProt Q99683)
# Method: as §1
# CDK5 = CDK5 (Homo sapiens (Human), UniProt Q00535)
# Method: as §1
# CLK3 = CLK3 (Homo sapiens (Human), UniProt P49761)
# Method: as §1
# CSNK2A2 = CSNK2A2 (Homo sapiens (Human), UniProt P19784)
# Method: as §1
# DYRK1B = DYRK1B (Homo sapiens (Human), UniProt Q9Y463)
# Method: as §1
# EPHA8 = EPHA8 (Homo sapiens (Human), UniProt P29322)
# Method: as §1
# EPHB6 = EPHB6 (Homo sapiens (Human), UniProt O15197)
# Method: as §1
# ERBB3 = ERBB3 (Homo sapiens (Human), UniProt P21860)
# Method: as §1
# FAK = FAK (Homo sapiens (Human), UniProt Q05397)
# Method: as §1
# FLT3 (D835V) = FLT3 (D835V) (Homo sapiens (Human), UniProt P36888, D835V)
# Method: as §1
# FRK = FRK (Homo sapiens (Human), UniProt P42685)
# Method: as §1
# GCN2(Kin.Dom.2,S808G) = GCN2(Kin.Dom.2,S808G) (Homo sapiens (Human), UniProt Q9P2K8, S808G)
# Method: as §1
# HIPK1 = HIPK1 (Homo sapiens (Human), UniProt Q86Z02)
# Method: as §1
# HUNK = HUNK (Homo sapiens (Human), UniProt P57058)
# Method: as §1
# ICK = ICK (Homo sapiens (Human), UniProt Q9UPZ9)
# Method: as §1
# IGF1R = IGF1R (Homo sapiens (Human), UniProt P08069)
# Method: as §1
# INSRR = INSRR (Homo sapiens (Human), UniProt P14616)
# Method: as §1
# [1] = target: JAK2(JH1domain-catalytic (Homo sapiens (Human), UniProt O60674))
# Method: as §1
# LIMK2 = LIMK2 (Homo sapiens (Human), UniProt P53671)
# Method: as §1
# LKB1 = LKB1 (Homo sapiens (Human), UniProt Q15831)
# Method: as §1
# LRRK2 = LRRK2 (Homo sapiens (Human), UniProt Q5S007)
# Method: as §1
# MLK3 = MLK3 (Homo sapiens (Human), UniProt Q16584)
# Method: as §1
# PIK3CA(E542K) = PIK3CA(E542K) (Homo sapiens (Human), UniProt P42336, E542K)
# Method: as §1
# PIK3CA(Q546K) = PIK3CA(Q546K) (Homo sapiens (Human), UniProt P42336, Q546K)
# Method: as §1
# PIK3CB = PIK3CB (Homo sapiens (Human), UniProt P42338)
# Method: as §1
# PIM1 = PIM1 (Homo sapiens (Human), UniProt P11309)
# Method: as §1
# QSK = QSK (Homo sapiens (Human), UniProt Q9Y2K2)
# Method: as §1
# RIPK1 = RIPK1 (Homo sapiens (Human), UniProt Q13546)
# Method: as §1
# SNARK = SNARK (Homo sapiens (Human), UniProt Q9H093)
# Method: as §1
# TAK1 = TAK1 (Homo sapiens (Human), UniProt O43318)
# Method: as §1
# TGFBR1 = TGFBR1 (Homo sapiens (Human), UniProt P36897)
# Method: as §1
# TIE1 = TIE1 (Homo sapiens (Human), UniProt P35590)
# Method: as §1
# WNK1 = WNK1 (Homo sapiens (Human), UniProt Q9H4A3)
# Method: as §1
# YANK2 = YANK2 (Homo sapiens (Human), UniProt Q9NY57)
# Method: as §1
# Sequence of HIPK1 (Q86Z02 whole entry): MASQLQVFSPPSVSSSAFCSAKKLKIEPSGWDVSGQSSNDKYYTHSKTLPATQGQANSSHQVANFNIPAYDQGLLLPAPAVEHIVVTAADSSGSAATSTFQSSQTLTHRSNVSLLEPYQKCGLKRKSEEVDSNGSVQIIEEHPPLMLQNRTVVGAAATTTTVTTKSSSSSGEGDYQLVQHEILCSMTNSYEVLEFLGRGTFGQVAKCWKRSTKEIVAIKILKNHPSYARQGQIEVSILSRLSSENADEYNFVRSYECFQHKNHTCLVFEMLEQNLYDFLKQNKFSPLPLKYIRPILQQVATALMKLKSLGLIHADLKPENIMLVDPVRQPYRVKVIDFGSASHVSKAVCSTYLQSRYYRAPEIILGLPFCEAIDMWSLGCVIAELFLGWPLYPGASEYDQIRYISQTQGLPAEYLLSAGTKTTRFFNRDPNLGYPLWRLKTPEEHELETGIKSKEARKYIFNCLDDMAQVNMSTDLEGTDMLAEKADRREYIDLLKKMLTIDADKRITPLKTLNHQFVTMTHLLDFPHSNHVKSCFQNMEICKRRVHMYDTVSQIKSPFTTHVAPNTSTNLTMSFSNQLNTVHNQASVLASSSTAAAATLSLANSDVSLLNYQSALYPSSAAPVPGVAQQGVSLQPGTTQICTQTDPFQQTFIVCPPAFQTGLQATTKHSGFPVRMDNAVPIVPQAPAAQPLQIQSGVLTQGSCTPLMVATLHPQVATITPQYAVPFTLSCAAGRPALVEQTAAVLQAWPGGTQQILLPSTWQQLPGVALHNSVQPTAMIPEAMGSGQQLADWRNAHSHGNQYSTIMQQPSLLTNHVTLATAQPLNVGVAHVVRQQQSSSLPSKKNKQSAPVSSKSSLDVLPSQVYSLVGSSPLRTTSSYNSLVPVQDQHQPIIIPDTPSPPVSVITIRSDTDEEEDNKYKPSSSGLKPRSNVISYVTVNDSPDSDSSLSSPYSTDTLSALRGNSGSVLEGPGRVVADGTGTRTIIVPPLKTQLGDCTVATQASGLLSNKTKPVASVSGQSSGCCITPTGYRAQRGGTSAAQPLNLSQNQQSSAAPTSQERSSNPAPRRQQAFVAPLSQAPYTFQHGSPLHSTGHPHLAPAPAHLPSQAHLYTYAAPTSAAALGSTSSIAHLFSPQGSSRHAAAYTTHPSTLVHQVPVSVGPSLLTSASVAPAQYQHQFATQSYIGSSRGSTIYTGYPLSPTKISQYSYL
# Sequence of QSK (Q9Y2K2 whole entry): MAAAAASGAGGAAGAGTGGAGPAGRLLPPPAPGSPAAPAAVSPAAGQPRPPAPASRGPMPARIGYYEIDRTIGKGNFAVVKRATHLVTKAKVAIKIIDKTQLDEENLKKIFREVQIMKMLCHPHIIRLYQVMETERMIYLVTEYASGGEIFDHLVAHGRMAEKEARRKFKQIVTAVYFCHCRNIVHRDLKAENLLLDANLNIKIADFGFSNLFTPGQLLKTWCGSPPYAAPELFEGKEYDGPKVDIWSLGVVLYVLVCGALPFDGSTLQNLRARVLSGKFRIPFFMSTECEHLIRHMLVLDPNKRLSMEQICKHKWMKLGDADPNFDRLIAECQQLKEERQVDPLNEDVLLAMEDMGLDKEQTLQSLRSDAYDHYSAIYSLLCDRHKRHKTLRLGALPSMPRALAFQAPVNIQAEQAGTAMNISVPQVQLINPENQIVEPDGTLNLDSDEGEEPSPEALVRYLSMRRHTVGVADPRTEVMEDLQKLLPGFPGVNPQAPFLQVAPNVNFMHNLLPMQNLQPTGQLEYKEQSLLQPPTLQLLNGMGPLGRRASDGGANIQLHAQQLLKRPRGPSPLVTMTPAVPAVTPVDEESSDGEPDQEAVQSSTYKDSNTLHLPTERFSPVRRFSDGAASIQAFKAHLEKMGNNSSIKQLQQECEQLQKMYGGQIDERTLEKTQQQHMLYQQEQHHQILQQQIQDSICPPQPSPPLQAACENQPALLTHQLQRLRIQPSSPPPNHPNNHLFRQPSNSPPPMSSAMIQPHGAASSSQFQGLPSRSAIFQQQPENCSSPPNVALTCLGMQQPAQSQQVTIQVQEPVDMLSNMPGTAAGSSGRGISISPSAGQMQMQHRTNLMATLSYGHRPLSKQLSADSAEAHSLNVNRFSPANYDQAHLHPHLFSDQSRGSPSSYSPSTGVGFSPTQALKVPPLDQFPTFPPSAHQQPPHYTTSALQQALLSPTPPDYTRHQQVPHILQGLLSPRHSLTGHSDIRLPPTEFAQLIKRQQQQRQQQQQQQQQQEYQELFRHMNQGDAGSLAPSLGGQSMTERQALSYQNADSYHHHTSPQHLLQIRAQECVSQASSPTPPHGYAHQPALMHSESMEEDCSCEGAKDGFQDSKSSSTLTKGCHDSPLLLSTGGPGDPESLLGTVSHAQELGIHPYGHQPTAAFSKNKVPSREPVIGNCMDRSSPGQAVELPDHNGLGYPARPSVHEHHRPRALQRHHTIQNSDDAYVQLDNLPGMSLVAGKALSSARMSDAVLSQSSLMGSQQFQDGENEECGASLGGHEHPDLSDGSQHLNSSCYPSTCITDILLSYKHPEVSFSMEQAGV
# Sequence of MLK3 (Q16584 whole entry): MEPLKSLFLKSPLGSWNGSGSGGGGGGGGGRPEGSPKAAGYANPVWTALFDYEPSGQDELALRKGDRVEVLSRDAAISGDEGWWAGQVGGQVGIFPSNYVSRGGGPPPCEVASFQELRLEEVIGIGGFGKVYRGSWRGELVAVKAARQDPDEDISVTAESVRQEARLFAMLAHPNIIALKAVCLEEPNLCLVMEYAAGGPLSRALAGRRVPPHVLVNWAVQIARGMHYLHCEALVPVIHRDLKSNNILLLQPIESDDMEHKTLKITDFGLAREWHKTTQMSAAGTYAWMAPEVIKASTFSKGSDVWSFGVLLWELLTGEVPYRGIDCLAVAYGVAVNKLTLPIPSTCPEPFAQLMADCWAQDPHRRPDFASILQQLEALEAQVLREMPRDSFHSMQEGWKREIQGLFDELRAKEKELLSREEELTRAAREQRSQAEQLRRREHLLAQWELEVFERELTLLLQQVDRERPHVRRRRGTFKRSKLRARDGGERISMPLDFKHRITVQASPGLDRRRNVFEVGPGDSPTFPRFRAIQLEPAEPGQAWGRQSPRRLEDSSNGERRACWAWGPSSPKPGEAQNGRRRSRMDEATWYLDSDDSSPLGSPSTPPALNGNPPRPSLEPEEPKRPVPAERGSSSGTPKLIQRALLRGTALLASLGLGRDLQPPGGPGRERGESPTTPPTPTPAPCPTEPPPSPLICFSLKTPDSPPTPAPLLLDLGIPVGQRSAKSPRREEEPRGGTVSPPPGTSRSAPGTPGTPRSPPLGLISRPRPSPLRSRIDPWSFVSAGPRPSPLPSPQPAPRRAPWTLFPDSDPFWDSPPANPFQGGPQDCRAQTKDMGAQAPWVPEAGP
# Sequence of GCN2(Kin.Dom.2,S808G) (Q9P2K8 590-1001 S808G): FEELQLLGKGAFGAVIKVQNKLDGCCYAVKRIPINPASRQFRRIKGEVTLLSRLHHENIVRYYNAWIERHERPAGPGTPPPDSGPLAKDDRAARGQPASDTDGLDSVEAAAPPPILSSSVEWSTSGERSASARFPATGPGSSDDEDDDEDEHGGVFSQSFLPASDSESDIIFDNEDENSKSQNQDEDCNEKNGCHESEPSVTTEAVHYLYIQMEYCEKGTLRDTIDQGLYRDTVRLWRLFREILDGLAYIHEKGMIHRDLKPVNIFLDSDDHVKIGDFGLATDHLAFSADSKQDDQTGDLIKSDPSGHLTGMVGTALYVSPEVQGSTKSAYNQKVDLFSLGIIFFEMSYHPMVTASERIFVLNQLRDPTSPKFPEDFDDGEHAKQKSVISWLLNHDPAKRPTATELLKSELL
# Sequence of PIK3CA(E542K) (P42336 whole entry E542K): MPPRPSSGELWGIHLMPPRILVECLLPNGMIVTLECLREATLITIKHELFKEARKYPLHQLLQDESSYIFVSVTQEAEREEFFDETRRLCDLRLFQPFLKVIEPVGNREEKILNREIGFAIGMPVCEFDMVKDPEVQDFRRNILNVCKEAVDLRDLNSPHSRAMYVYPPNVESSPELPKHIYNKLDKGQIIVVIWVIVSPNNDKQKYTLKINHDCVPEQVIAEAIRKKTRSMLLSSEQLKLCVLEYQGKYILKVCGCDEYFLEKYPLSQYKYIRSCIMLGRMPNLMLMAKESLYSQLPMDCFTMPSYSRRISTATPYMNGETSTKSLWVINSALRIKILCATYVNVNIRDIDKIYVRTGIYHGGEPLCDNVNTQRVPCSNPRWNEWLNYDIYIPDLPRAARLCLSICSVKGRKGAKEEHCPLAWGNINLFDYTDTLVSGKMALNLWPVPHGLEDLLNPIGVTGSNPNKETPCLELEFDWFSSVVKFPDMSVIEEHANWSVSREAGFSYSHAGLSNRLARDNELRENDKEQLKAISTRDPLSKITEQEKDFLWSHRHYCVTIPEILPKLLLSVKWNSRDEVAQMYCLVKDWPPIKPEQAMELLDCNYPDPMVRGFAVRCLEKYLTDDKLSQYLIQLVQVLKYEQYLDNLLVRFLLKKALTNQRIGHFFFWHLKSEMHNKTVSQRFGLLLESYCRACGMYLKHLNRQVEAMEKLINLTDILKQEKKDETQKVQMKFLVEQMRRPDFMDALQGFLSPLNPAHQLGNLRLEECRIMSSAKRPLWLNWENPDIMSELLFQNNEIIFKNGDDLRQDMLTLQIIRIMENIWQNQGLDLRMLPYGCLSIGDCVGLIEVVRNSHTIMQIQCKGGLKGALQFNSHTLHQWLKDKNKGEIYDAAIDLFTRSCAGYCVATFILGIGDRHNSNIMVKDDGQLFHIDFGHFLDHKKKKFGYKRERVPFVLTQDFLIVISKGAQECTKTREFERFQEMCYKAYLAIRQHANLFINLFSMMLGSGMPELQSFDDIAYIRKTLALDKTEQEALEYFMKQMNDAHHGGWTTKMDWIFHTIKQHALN
# Sequence of PIK3CA(Q546K) (P42336 whole entry Q546K): as the sequence (P42336 whole entry E542K) above, with K542E, Q546K counted along it
Compound,remaining binding at 1 µM (ACVR1B) [%],remaining binding at 1 µM (ACVR2B) [%],remaining binding at 1 µM (ADCK3) [%],remaining binding at 1 µM (ALK(C1156Y)) [%],remaining binding at 1 µM (AMPK-alpha2) [%],remaining binding at 1 µM (ASK1) [%],remaining binding at 1 µM (CDK5) [%],remaining binding at 1 µM (CLK3) [%],remaining binding at 1 µM (CSNK2A2) [%],remaining binding at 1 µM (DYRK1B) [%],remaining binding at 1 µM (EPHA8) [%],remaining binding at 1 µM (EPHB6) [%],remaining binding at 1 µM (ERBB3) [%],remaining binding at 1 µM (FAK) [%],remaining binding at 1 µM (FLT3 (D835V)) [%],remaining binding at 1 µM (FRK) [%],"remaining binding at 1 µM (GCN2(Kin.Dom.2,S808G)) [%]",remaining binding at 1 µM (HIPK1) [%],remaining binding at 1 µM (HUNK) [%],remaining binding at 1 µM (ICK) [%],other results
"CCN1CCN(Cc2cc(NC(=O)c3ccc(C)c(-c4ccc5nc(NC(=O)C6CC6)cn5n4)c3)cc(C(F)(F)F)c2)CC1 [Compound I-2, 3-(2-(cyclopropanecarboxamido)imidazo[1,2-b]pyridazin-6-yl)-N-(3-((4-ethylpiperazin-1-yl)methyl)-5-(trifluoromethyl)phenyl)-4-methylbenzamide]",99,96,97,30,99,97,6.6,79,94,62,0,78,100,1.9,5.3,3.9,82,62,80,50,remaining binding at 1 µM (IGF1R): 0.7%; remaining binding at 1 µM (INSRR): 0.55%; remaining binding at 1 µM [1]: 7.9%; remaining binding at 1 µM (LIMK2): 96%; remaining binding at 1 µM (LKB1): 73%; remaining binding at 1 µM (LRRK2): 100%; remaining binding at 1 µM (MLK3): 76%; remaining binding at 1 µM (PIK3CA(E542K)): 96%; remaining binding at 1 µM (PIK3CA(Q546K)): 76%; remaining binding at 1 µM (PIK3CB): 100%; remaining binding at 1 µM (PIM1): 90%; remaining binding at 1 µM (QSK): 92%; remaining binding at 1 µM (RIPK1): 0.45%; remaining binding at 1 µM (SNARK): 100%; remaining binding at 1 µM (TAK1): 1.1%; remaining binding at 1 µM (TGFBR1): 94%; remaining binding at 1 µM (TIE1): 0%; remaining binding at 1 µM (WNK1): 100%; remaining binding at 1 µM (YANK2): 91%
"CCN1CCN(Cc2cc(NC(=O)c3ccc(C)c(-c4ccc5nc(NC(=O)C6CC6)cn5c4)c3)cc(C(F)(F)F)c2)CC1 [Compound I-6, 3-(2-(cyclopropanecarboxamido)imidazo[1,2-a]pyridin-6-yl)-N-(3-((4-ethylpiperazin-1-yl)methyl)-5-(trifluoromethyl)phenyl)-4-methylbenzamide]",94,100,96,29,99,100,52,84,100,87,0,64,93,7.9,7.7,3.2,97,96,96,68,remaining binding at 1 µM (IGF1R): 11%; remaining binding at 1 µM (INSRR): 3.8%; remaining binding at 1 µM [1]: 6.5%; remaining binding at 1 µM (LIMK2): 100%; remaining binding at 1 µM (LKB1): 100%; remaining binding at 1 µM (LRRK2): 87%; remaining binding at 1 µM (MLK3): 82%; remaining binding at 1 µM (PIK3CA(E542K)): 100%; remaining binding at 1 µM (PIK3CA(Q546K)): 94%; remaining binding at 1 µM (PIK3CB): 94%; remaining binding at 1 µM (PIM1): 93%; remaining binding at 1 µM (QSK): 83%; remaining binding at 1 µM (RIPK1): 0.75%; remaining binding at 1 µM (SNARK): 100%; remaining binding at 1 µM (TAK1): 2.7%; remaining binding at 1 µM (TGFBR1): 100%; remaining binding at 1 µM (TIE1): 4%; remaining binding at 1 µM (WNK1): 100%; remaining binding at 1 µM (YANK2): 100%
